# Data reported in US20230124720A1, “APPLICATION OF ACRIDINEDIONE COMPOUND IN PREPARATION OF ANTI-DIABETIC DRUGS” (THE FOURTH MILITARY MEDICAL UNIVERSITY, priority 2020, published 2023).
# Key:
# MIN6 cells [1] = experiment: Cytotoxicity / growth of MIN6 cells (FIG. 1A); assay type: cell-based, mouse; details: 100 μmol/L
# MIN6 cells [2] = experiment: Western Blot / immunofluorescence of insulin signaling related molecules in insulin-resistant MIN6 cells; assay type: cell-based, mouse
# Description: MIN6 cells were seeded in culture dishes at the appropriate density and cultured as described in step 2.1 to a confluency of about 80%. Cells were divided into the following 5 groups: (1) normal control group (Con): cultured with blank 1640 medium; (2) insulin resistance model panel (IR): treatment with 0.125 mmol/L PA for 24 h to induce establishment of a MIN6 cell insulin resistance model; (3) 3 μmol/L ADD-16 administration group (ADD I): 3 μmol/L ADD-16 intervention was given for 24 h after successful establishment of the insulin resistance model; (4) 10 μmol/L ADD-16 administration group (ADD II): 10 μmol/L ADD-16 intervention was given for 24 h after successful establishment of the insulin resistance model; (5) TAK875 control group (TAK875): 10 μmol/L TAK875 was administered as a positive control drug intervention for 24 h after successful establishment of the insulin resistance model. At the end of the group administration, groups of cells were harvested for WB or IF experiments.
smiles,measurement,setting,value
CC1(C)CC(=O)C2=C(C1)NC1=C(C(=O)CC(C)(C)C1)C2c1ccc(OCc2ccc(C(=O)O)cc2)c(Br)c1 [ADD-16],effect on MIN6 cell growth (in words),MIN6 cells [1],inhibitory effect on MIN6 cell growth
same,"GPR40 expression, immunofluorescence staining (in words)",MIN6 cells [2]; MIN6 cells,upregulate GPR40 expression
same,"expression of insulin signaling-related molecules, Western Blot (in words)","MIN6 cells [2]; insulin-resistant MIN6 cells, 24 h, P<0.001","upregulate GPR40, PGC-1α, P-P38, P-EP300, PPARγ, P-AKT, PI3K, IRS1 and GLUT4 expression"
